How the values were obtained:
[1] = system: TNFα; test: LPS-stimulated TNFα production in monocytes (ELISA); assay type: cell-based; conditions: human monocytes, final concentration 10 μM, 20 μM or 40 μM, 5 hours, then LPS 4 hours
Experimental: PBMCs were isolated in the same manner as in item (1) of Example 4. PBMCs were suspended in RPMI 1640 medium containing 5% human serum of blood type-AB, 0.1 mM nonessential amino acid, 1 mM sodium pyruvate, 2 mM L-glutamine (hereinabove manufactured by Bio Whittaker), 10 mM HEPES (manufactured by nakalai tesque), and 1% streptomycin-penicillin (manufactured by Gibco BRL) (hereinafter simply referred to as “5HRPMI medium”) so as to have a concentration of 2×10^6 cells/ml. Thereafter, the suspension was spread on a 24-well cell culture plate (manufactured by Falcon) in a volume of 1 ml/well, and the cells were incubated in a wet-type incubator at 37° C. and 5% CO2 for 1.5 hours. After 1.5 hours, the non-adherent cells were removed by suction, and each well was washed with RPMI 1640 medium, and 1 ml of the 5HRPMI medium was added to the wells, to give monocytes.
To the monocytes obtained above was added in each well 10 μl of a 1 mM, 2 mM or 4 mM aqueous DGE solution (each having a final concentration of 10 μM, 20 μM or 40 μM), or a 5 mM, 10 mM or 20 mM aqueous agarobiose solution (each having a final concentration of 50 μM, 100 μM or 200 μM), or 10 μl of water as a control (i.e. each of concentrations of DGE and agarobiose being 0 μM), and the cells were incubated in a wet-type incubator at 37° C. and 5% CO2 for 5 hours. […]

[2] = system: interleukin-10 (IL-10); test: LPS-induced IL-10 production in RAW 264.7 cells (ELISA); assay type: cell-based; conditions: final concentration 20 μM, 5 hours, then LPS 18 hours, IL-10 in culture supernatant by ELISA
Experimental: RAW 264.7 cells (ATCC TIB 71) were suspended in a Dulbecco's modified Eagle's medium (manufactured by Bio Whittaker; 12-604F) containing 10% fetal bovine serum (manufactured by Gibco), so as to have a concentration of 3×10^5 cells/ml. The cell suspension was added to each well of a 48-well microtiter plate in a volume of 0.5 ml each. The cells were cultured at 37° C. in the presence of 5% CO2 gas overnight. To each well was added 5 μl of a 2 mM DGE aqueous solution (final concentration: 20 μM), and the cells were cultured for additional 5 hours. Thereafter, 5 μl of a 100 μg/ml lipopolysaccharide (LPS, manufactured by Sigma, L-2012) aqueous solution was added thereto, and the cells were cultured for 18 hours, and thereafter the culture supernatant was recovered. The content of the interleukin-10 (IL-10) in the culture supernatant was assayed by the enzyme immuno-sandwich assay. Here, the group with no addition of DGE and LPS aqueous solution (control) was set as a negative control, and the group with addition of LPS aqueous solution (control+LPS) alone was set as a positive control. In addition, all of the assays were carried out twice.

O=C1C=CC(CO)OC1O [DGE, L-glycero-1,5-epoxy-1αβ,6-dihydroxy-cis-hex-3-en-2-one]
inhibition of LPS-stimulated TNFα production [1]: inhibition
inhibition of LPS-induced IL-10 production [2]: inhibition of LPS-induced IL-10 production was found

From patent US20030158250A1, “Agents correcting gene expression regulatory error” (priority 2000, published 2003)
